One data set has as its system HL-60 cells. As to the kind of experiment: HL-60 differentiation (nitro blue tetrazolium reduction). The data set is classed as cell-based, human. The settings on record: compared with 1,25-(OH)2D3; FIG. 2. On the procedure: The study drugs were dissolved in ethanol and the concentrations determined using UV spectrophotometry. Serial dilutions were prepared so that a range of drug concentrations could be tested without changing the final concentration of ethanol (≦0.2%) present in the cell cultures.
Human promyelocytic leukemia (HL60) cells were grown in RPMI-1640 medium containing 10% fetal bovine serum. The cells were incubated at 37° C. in the presence of 5% CO2.
HL60 cells were plated at 1.2×10^5 cells/ml. Eighteen hours after plating, cells in duplicate were treated with drug. Four days later, the cells were harvested and a nitro blue tetrazolium reduction assay was performed (Collins et al., 1979; J. Exp. Med. 149:969-974). The percentage of differentiated cells was determined by counting a total of 200 cells and recording the number that contained intracellular black-blue formazan deposits. Verification of differentiation to monocytic cells was determined by measuring phagocytic activity (data not shown).

Data set [1] in a line: Intestinal calcium transport (everted gut sac method). The data set is classed as in vivo, rat. The settings on record: rats, ip; FIG. 5. On the procedure:
(§1) Male, weanling Sprague-Dawley rats were placed on Diet 11 (0.47% Ca) diet +AEK for one week followed by Diet 11 (0.02% Ca) +AEK for 3 weeks. The rats were then switched to a diet containing 0.47% Ca for one week followed by two weeks on a diet containing 0.02% Ca. Dose administration began during the last week on 0.02% calcium diet. Four consecutive ip doses were given approximately 24 hours apart. Twenty-four hours after the last dose, blood was collected from the severed neck and the concentration of serum calcium determined as a measure of bone calcium mobilization. The first 10 cm of the intestine was also collected for intestinal calcium transport analysis using the everted gut sac method.

In data set [2] the target is T1, full-length recombinant rat vitamin D receptor (Rattus norvegicus, UniProt P13053).
T1 construct: Full-length recombinant rat receptor was expressed in E. coli BL21(DE3) Codon Plus RIL cells; histidine tag (C); made in house; host or cells: E. coli BL21(DE3) Codon Plus RIL
T1 sequence (P13053 1-423): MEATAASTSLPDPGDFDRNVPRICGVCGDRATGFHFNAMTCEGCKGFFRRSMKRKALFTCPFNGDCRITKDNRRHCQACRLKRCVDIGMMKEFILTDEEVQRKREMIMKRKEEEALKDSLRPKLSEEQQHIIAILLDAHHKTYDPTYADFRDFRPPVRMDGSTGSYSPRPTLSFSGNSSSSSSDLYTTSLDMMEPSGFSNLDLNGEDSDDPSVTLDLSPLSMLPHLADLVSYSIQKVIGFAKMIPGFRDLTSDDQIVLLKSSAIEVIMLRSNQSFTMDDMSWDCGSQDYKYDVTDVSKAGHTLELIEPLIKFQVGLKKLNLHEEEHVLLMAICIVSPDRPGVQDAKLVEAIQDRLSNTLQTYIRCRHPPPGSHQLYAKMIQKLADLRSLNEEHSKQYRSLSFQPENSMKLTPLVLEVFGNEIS
Put plainly: Vitamin D receptor binding, competition with [3H]-1,25-(OH)2-D3. Particulars: compared with 1,25(OH)2D3; FIG. 1. On the procedure:
Full-length recombinant rat receptor was expressed in E. coli BL21(DE3) Codon Plus RIL cells and purified to homogeneity using two different column chromatography systems. The first system was a nickel affinity resin that utilizes the C-terminal histidine tag on this protein. The protein that was eluted from this resin was further purified using ion exchange chromatography (S-Sepharose Fast Flow). Aliquots of the purified protein were quick frozen in liquid nitrogen and stored at −80° C. until use. For use in binding assays, the protein was diluted in TEDK50 (50 mM Tris, 1.5 mM EDTA, pH 7.4, 5 mM DTT, 150 mM KCl) with 0.1% Chaps detergent. The receptor protein and ligand concentration was optimized such that no more than 20% of the added radiolabeled ligand was bound to the receptor.
Unlabeled ligands were dissolved in ethanol and the concentrations determined using UV spectrophotometry (1,25(OH)2D3: molar extinction coefficient=18,200 and λmax=265 nm; Analogs: molar extinction coefficient=42,000 and λmax=252 nm). Radiolabeled ligand (^3H-1,25(OH)2D3, ˜159 Ci/mmole) was added in ethanol at a final concentration of 1 nM.
Radiolabeled and unlabeled ligands were added to 100 mcl of the diluted protein at a final ethanol concentration of ≦10%, mixed and incubated overnight on ice to reach binding equilibrium. […] Total binding was determined from the tubes containing only radiolabeled ligand.

The nature of data set [3]: Hypercalcemia: serum calcium in adult rats. The data set is classed as in vivo, rat. Particulars: ip, 7 consecutive days. On the procedure: (§2) Adult, female Sprague-Dawley rats were obtained from Harlan (Madison, Wis.).
(§3) Upon receipt, the animals were identified by individual tail marks. Animals were housed in suspended, stainless steel, wire-bottom cages. Each cage contained one animal. The animal rooms were maintained at a temperature of 68 to 72° F. and a relative humidity of 25 to 75%. The holding rooms were set to provide 12 hours of light per day. Water and a purified rodent diet (Suda et al., Purified Rodent Diet-Diet 11) containing […] 0.3% phosphorus and fat soluble vitamins A, D, E and K were provided ad libitum.
(§4) Animals were randomly assigned to treatment groups (5 animals/group). All doses were administered intraperitoneally in 100 microliters of propylene glycol. Four to seven consecutive doses were given approximately 24 hours apart. Dosing was initiated after the animals had been allowed to acclimate for at least one week.
Both control and test articles were administered by intraperitoneal injection in 100 microliters for 4-7 consecutive days spaced approximately 24 hours apart. […]
Twenty-four hours after the final dose, approximately 1 ml of blood was collected from the tail artery of each experimental animal. […] The level of calcium was determined by diluting the serum into 0.1% lanthum chloride and measuring the absorbance on an atomic absorption spectrophotometer (Perkin Elmer Model 3110, Shelton, Conn.).

Data set [4] relates to parathyroid hormone (PTH). As to the kind of experiment: PTH suppression in adult rats. The data set is classed as in vivo, rat. Particulars: ip, 7 consecutive days. On the procedure: as §2, §3, §4
Both control and test articles were administered by intraperitoneal injection in 100 microliters for 4-7 consecutive days spaced approximately 24 hours apart. 1,25(OH)2D3 was given for 4 consecutive days, whereas, the test drugs were given for 7 consecutive days.
Twenty-four hours after the final dose, blood was collected from the tail artery and the concentration of bioactive serum PTH was measured using the rat BioActive Intact PTH ELISA Kit from Immutopics, Inc. (San Clemente, Calif.).

In data set [5] the test system is 24-hydroxylase (24Ohase) gene promoter. As to the kind of experiment: In vitro transcription assay (24-hydroxylase promoter luciferase reporter in ROS 17/2.8 cells). The data set is classed as cell-based. The settings on record: compared with 1,25-(OH)2D3; FIG. 3. On the procedure: Transcription activity was measured in ROS 17/2.8 (bone) cells that were stably transfected with a 24-hydroxylase (24Ohase) gene promoter upstream of a luciferase reporter gene (Arbour et al., 1998). Cells were given a range of doses. Sixteen hours after dosing the cells were harvested and luciferase activities were measured using a luminometer. RLU=relative luciferase units.
On the technique in general: A reporter such as luciferase makes a cellular process visible.

Data set [6] in a line: Bone calcium mobilization (serum calcium on low calcium diet). The data set is classed as in vivo, rat. Particulars: rats, ip, even at 2340 pmol/day; FIG. 4. On the procedure: as §1

Turning to `C=C1[C@H](O)CC(=C/C=C2\CCC[C@]3(C)C([C@@H](C)CCC)CC[C@@H]23)C[C@H]1O` (stereo in doubt) [2-Methylene-19-nor-(20S)-1α-hydroxy-trishomopregnacalciferol], the “activity in inducing differentiation of HL-60 cells” value in the data set with HL-60 cells is on record as “equal in activity to 1,25-(OH)2D3”. Also, in data set [1], the intestinal calcium transport result was “retain some ability to elevate intestinal calcium transport”. The “binding to the vitamin D receptor relative to the native hormone” value in data set [2] is listed as “almost equal to the native hormone”. For the same compound, in data set [3], the serum calcium concentrations result is “not raising serum calcium concentrations”. In addition, the “suppression of parathyroid hormone” value in data set [4] is “remarkably effective in suppressing parathyroid hormone”. Moreover, the transcription activity entry in data set [5] is listed as “within one order of magnitude of the activity of 1,25-(OH)2D3”. The “bone calcium mobilizing activity” value in data set [6] is “little bone calcium mobilizing activity”.
